Laboratory results as given in US4687773A, “(+)-N-N-propylnorapomorphine and selective limbic activity” (priority 1985, dated 1987).
Structures can show the parent of a compound that is named as a salt. Where two headings read alike, the source gives them in different places.

Experiments:
[1] = test system: dopamine (DA) receptors in the basal ganglia (corpus striatum); assay: Stereotyped licking and gnawing behavior rating in the rat; format: in vivo; conditions: for SB Score, Percent of Maximum / SB Score (stereotyped behaviors): Table 12, 3 mg/kg ip; for SB Score (stereotyped behaviors): max. possible score 18.0; for stereotyped behavior (in words): rat, in vivo
Source text: Stereotypy: The mean stereotyped licking and gnawing behavioral rating scheme developed by Tarsy and Baldessarini^8 was used. […]
Stereotypy scores were rated for one hour as described in […]

[2] = test system: dopamine (DA) receptors in the limbic system; assay: Locomotor activity (spontaneous or aroused by (-)APO / (-)NPA), electronic activity monitor; format: in vivo, rat; conditions: for interaction with (-)APO locomotor arousal (in words) / EAM Score / EAM Score, Percent of Control: Table 11; for interaction with (-)APO locomotor arousal (in words): 3 mg/kg ip with (-)APO; for EAM Score: 60 min; for effect on locomotor-arousal activity (in words): with or without (-) isomer; for increase of the locomotor stimulatory effect of APO: with (-)APO; for Locomotion: Table 4
Procedure: (§1) Activity: Overall motor activity was measured by use of the self-recording Stoelting electronic activity monitor method described previously by Stewart, Campbell, Sperk, and Baldessarini^9. Total activity is obtained by setting monitor sensitivity so as to detect both locomotion and small movements (such as grooming, sniffing, and chewing) as would be prominent in stereotyped responses that tend to diminish locomotion and increase sniffing, licking, and chewing movements. Locomotor activity is detected selectively by setting monitor sensitivity to detect large, locomotor movements, and to minimize smaller movements already described.
Rats (mean N=6 per condition) were tested for locomotor activity for 60 min following a single dose of (-)APO (0.3 mg/kg, SC), or its vehicle ("placebo" condition). The S(+) isomers were administered in a range of doses from 0 or 0.1 to 30 mg/kg, SC immediately following injection of (-)APO or its vehicle. Data are presented in FIG. 2 as mean EAM activity counts per hour SEM. In that figure, the dashed line labeled "control" represents the mean activity of rats given vehicle only and no aporphine (SD values are indicated by parallel light lines above and below the control mean).
Test agents (11substituted-N--propylnoraporphine isomers were given at a
dose of 3 mg/kg, ip (in 2 ml/kg) just prior to (-)apomorphine (APO, at 0.
mg/kg, ip, in 1 ml/kg) to rats (N = 6) tested in an electronic activity

[3] = test system: dopamine (DA) receptors in the limbic system; assay: Effect of metabolic inhibitor SKF-525A on locomotor effect of (+)MDO-NPA; format: in vivo, rat
Procedure: Rats (N = 6) per condition) were tested by monitoring locomotor activity
on an electronic monitor under higharousal conditions (7-8 PM during earl
"lights out" phase, and singly in previously occupied test cages).
Pretreatment was saline (control) or the microsomal inhibitor SKF525A (40
mg/kg, ip). At 30 min later, saline or (+)MDONPA (3 mg/kg, ip) was given,
and the rats were monitored for the next 60 min. Data are activity counts
per hour, as means ± SEM ([*] = significant by ttest at p < 0.05). Th

[4] = test system: DA in the limbic system (nucleus accumbens septi); assay: Arousal (locomotor activity) induced by DA injected into nucleus accumbens septi; format: in vivo, rat; conditions: for activity counts (arousal induced by 16 μg DA in accumbens): 30 min, DA control 238 ± 38; for ED50: Rattus norvegicus; for ED50 / ID50: DA 16 μg in accumbens; for ID50: hydrochloride
Procedure: An experiment shown in Table 9 involves testing the effects of S(+) isomers of apomorphine (APO) and N-propylnorapomorphine (NPA) given systemically (intraperitoneally, ip), as well as S(+) methylenedioxy-N-propylnorapomorphine (MDO-NPA) given ip or orally (po, by orogastric intubation). […]. […] Activity was monitored for 30 min after injection of DA into the brain, which was done at 10 min after systemic dosing with an S(+)aporphine test compound.
Data are mean activity counts ± SEM (N = 6) for rats given DA into the
medial accumbens after pretreatment with an inhibitor of monoamine oxidas
(MA0), and monitored on EAM for 30 min (aporphine given 10 min before DA
systemicallyintraperitoneally [ip] or orally [po].

[5] = test system: DA in the corpus striatum (basal ganglia); assay: Head posture (contralateral head deviation) after intrastriatal DA; format: in vivo, rat
[6] = test system: dopamine (DA) receptors in the limbic system; assay: Locomotor activity (spontaneous or aroused by (-)APO / (-)NPA), electronic activity monitor; format: in vivo, rat; conditions: Table 4; (-)APO 3.0 mg/kg + saline
[7] = test system: dopamine (DA) receptors in the limbic system and basal ganglia; assay: Total motor activity, electronic activity monitor (EAM); format: in vivo, rat; conditions: Table 4
Procedure: as §1
All data presented in the Tables below are expressed as the mean results from 4-6 rats per condition, ±S.E.M. Stereotypy is expressed in rating units (maximum=3.0) and activity is expressed in arbitrary units of percent change, derived from EAM counts per unit time, relative to activity in control (saline) animals set at zero.
All the posttreatment doses of (+)APO were 3.0 mg/kg, s.c. The data
All posttreatment doses of (+)NPA were 3 mg/kg, s.c. The data are similar

[8] = test agent 3 mg/kg ip just prior to (-)APO ip
[9] = test agent 3 mg/kg ip just prior to (-)APO ip, * p < 0.005
[10] = SKF-525A 40 mg/kg ip pretreatment, then S(+)MDO-NPA 3 mg/kg ip
[11] = intrastriatal DA 16 μg, 3 mg/kg ip
[12] = intrastriatal DA 16 μg, 3 mg/kg po
[13] = intrastriatal dopamine 16 μg + systemic saline
[14] = SKF-525A 40 mg/kg ip, then saline

CCCN1CCc2cccc3c2[C@@H]1Cc1cccc(O)c1-3 [(+)11-OH--N--propylnoraporphine, S(+) 11-hydroxy-N-propylnoraporphine hydrochloride and hydrobromide]
SB Score, Percent of Maximum [1]: 6.9% of Maximum | SB Score (stereotyped behaviors) ([1]; one hour): 1.3 ± 0.75 | stereotyped behavior (in words) [1]: virtually inactive | interaction with (-)APO locomotor arousal (in words) ([2]; listed as S(+)11-hydroxy-N-propylnoraporphine, hydrobromide, 3 mg/kg): strong inhibitory interaction with APO | interaction with (-)APO locomotor arousal (in words) ([2]; listed as S(+)11hydroxy-N--propylnoraporphine, hydrobromide, 3 mg/kg): significant inhibition of arousal | EAM Score [2, 8]: 218 ± 33 | EAM Score, Percent of Control [2, 9]: 43% of Control | effect on locomotor-arousal activity (in words) [2]: exerted similarly selective actions as (+)NPA

CCCN1CCc2cccc3c2[C@@H]1Cc1cccc(OC)c1-3 [(+)11-methoxy-N--propylnoraporphine, S(+) 11-Methoxy-N-propylnoraporphine hydrobromide]
SB Score, Percent of Maximum [1]: 0.0% of Maximum | SB Score (stereotyped behaviors) ([1]; one hour): 0 ± 0 | stereotyped behavior (in words) [1]: inactive | interaction with (-)APO locomotor arousal (in words) [2]: devoid of activity | EAM Score [2, 8]: 528 ± 25 | EAM Score, Percent of Control [2, 9]: 105% of Control

CCCN1CCc2cccc3c2[C@@H]1Cc1ccc2c(c1-3)OCO2 [(+)MDO-NPA, S(+) 10,11-methylenedioxy-N-propylnoraporphine hydrochloride]
Locomotor Activity [3, 10]: 3445 ± 597 counts/hr | Locomotor Activity (%) [3, 10]: 82% | Locomotor Activity ([3]; saline pretreatment, then S(+)MDO-NPA 3 mg/kg ip): 1828 ± 265 counts/hr | Locomotor Activity (%) ([3]; saline pretreatment, then S(+)MDO-NPA 3 mg/kg ip, * p < 0.05): 43% | activity counts (arousal induced by 16 μg DA in accumbens) ([4]; 0.3 mg/kg ip): 122 ± 16 activity counts | activity counts (arousal induced by 16 μg DA in accumbens) ([4]; 0.3 mg/kg po): 149 ± 23 activity counts | activity counts (arousal induced by 16 μg DA in accumbens) ([4]; 1.0 mg/kg ip): 54 ± 9 activity counts | activity counts (arousal induced by 16 μg DA in accumbens) ([4]; 1.0 mg/kg po): 74 ± 17 activity counts | activity counts (arousal induced by 16 μg DA in accumbens) ([4]; 3.0 mg/kg ip): 36 ± 7 activity counts | activity counts (arousal induced by 16 μg DA in accumbens) ([4]; 3.0 mg/kg po): 49 ± 16 activity counts | ED50 ([4]; ip, read-out: ID50, ip): 0.27 mg/kg | ED50 ([4]; po, read-out: ID50, po): 0.51 mg/kg | ID50 ([4]; ip): 0.3 mg/kg | ID50 ([4]; po): 0.5 mg/kg | effect on arousal induced by DA in accumbens (in words) ([4]; rat, in vivo): also active after systemic oral administration, selectively, against DA placed in the accumbens but not the striatum | times more potent than (+)APO as inhibitor of DA in the limbic system ([4]; vs (+)APO): 13 times | Contralateral Head Deviation, Percent of Total [5, 11]: 71.7% of Total | Contralateral Head Deviation, Time [5, 11]: 512 ± 96 s | Contralateral Head Deviation, Percent of Total [5, 12]: 70.1% of Total | Contralateral Head Deviation, Time [5, 12]: 505 ± 89 s

CCCN1CCc2cccc3c2[C@H]1Cc1cccc(O)c1-3 [(-)11-OH--N--propylnoraporphine, R(-)11-hydroxy-N-propylnoraporphine]
SB Score, Percent of Maximum [1]: 76.7% of Maximum | SB Score (stereotyped behaviors) ([1]; one hour): 13.8 ± 0.75 | stereotyped behavior (in words) ([1]; listed as R(-)11-hydroxy-N-- propylnoraporphine): very active | stereotyped behavior (in words) ([1]; listed as R(-)11-hydroxy-N-propylnoraporphine): striking activity as a DA agonist | increase of the locomotor stimulatory effect of APO ([2]; 3 mg/kg): 51% | EAM Score [2, 8]: 764 ± 58 | EAM Score, Percent of Control [2, 9]: 151% of Control

CCCN1CCc2cccc3c2[C@H]1Cc1cccc(OC)c1-3 [(-)11-methoxy-N--propylnoraporphine]
SB Score, Percent of Maximum [1]: 36.1% of Maximum | SB Score (stereotyped behaviors) ([1]; one hour): 6.5 ± 0.50 | stereotyped behavior (in words) ([1]; listed as 11-methoxy congener): moderately active | stereotyped behavior (in words) ([1]; listed as R(-)11methoxy analog): had some activity | increase of the locomotor stimulatory effect of APO ([2]; 3 mg/kg): 14% | EAM Score [2, 8]: 574 ± 45 | EAM Score, Percent of Control [2, 9]: 114% of Control

CN1CCc2cccc3c2[C@H]1Cc1ccc(O)c(O)c1-3 [(-)APO, R(-)apomorphine]
mean control stereotypy score, % of maximum ([1]; (-)APO 0.3 mg/kg IP + vehicle): 51.3 % of maximum | mean control stereotypy score ([1]; (-)APO 0.3 mg/kg IP + vehicle, one hour, maximum possible score 18.0): 9.23 ± 0.43 | approximate ED50 (stereotyped behavior) ([1]; (-)APO, IP, rats): ~0.3 mg/kg | Stereotypy Score ([1]; Table 1, (-) isomer 3 mg/kg, s.c., ± saline, maximum 3.0): 3.0 ± 0.0 rating units | Stereotypy Score ([1]; Table 4, (-)APO 0.3 mg/kg + saline): 1.62 ± 0.23 rating units | Stereotypy Score ([1]; Table 4, (-)APO 1.0 mg/kg + saline): 2.09 ± 0.36 rating units | Stereotypy Score ([1]; Table 4, (-)APO 3.0 mg/kg + saline): 2.92 ± 0.20 rating units | Locomotion ([2]; (-)APO 0.3 mg/kg + saline): 63.5 ± 12.3 percent change | Locomotion ([2]; (-)APO 1.0 mg/kg + saline): 75.8 ± 19.4 percent change | EAM Score, Percent of Control ([2]; (-)APO alone (control)): 100% of Control | EAM Score ([2]; (-)APO alone (control), ip): 505 ± 55 | Locomotion [6]: 48.6 ± 9.3 percent change | Total Activity ([7]; (-)APO 0.3 mg/kg + saline): 42.2 ± 8.5 percent change | Total Activity ([7]; (-)APO 1.0 mg/kg + saline): 51.9 ± 6.8 percent change | Total Activity ([7]; (-)APO 3.0 mg/kg + saline): 75.3 ± 8.6 percent change

NCCc1ccc(O)c(O)c1 [DA, dopamine]
Contralateral Head Deviation, Percent of Total [5, 13]: 59.0% of Total | Contralateral Head Deviation, Time [5, 13]: 425 ± 53 s

CN1CCc2cccc3c2[C@@H]1Cc1cccc(O)c1-3 [S(+) 11-hydroxyaporphine, S(+) 11-hydroxyaporphine (N-R=N-methyl)]
effect on locomotor-arousal activity (in words) [2]: less active

CCCC(C(=O)OCCN(CC)CC)(c1ccccc1)c1ccccc1 [SKF-525A]
Locomotor Activity [3, 14]: 4777 ± 610 counts/hr | Locomotor Activity (%) [3, 14]: 113%
